The values that follow come from patent publication US20260274829A1, “NEW E3 UBIQUITIN LIGASE LIGAND, PROTEIN DEGRADATION AGENT AND USE THEREOF” (GLUETACS THERAPEUTICS (SHANGHAI) CO., LTD., priority 2023, published 2026).

Structures are written as SMILES.

T1 sequence (Q96SW2 whole entry): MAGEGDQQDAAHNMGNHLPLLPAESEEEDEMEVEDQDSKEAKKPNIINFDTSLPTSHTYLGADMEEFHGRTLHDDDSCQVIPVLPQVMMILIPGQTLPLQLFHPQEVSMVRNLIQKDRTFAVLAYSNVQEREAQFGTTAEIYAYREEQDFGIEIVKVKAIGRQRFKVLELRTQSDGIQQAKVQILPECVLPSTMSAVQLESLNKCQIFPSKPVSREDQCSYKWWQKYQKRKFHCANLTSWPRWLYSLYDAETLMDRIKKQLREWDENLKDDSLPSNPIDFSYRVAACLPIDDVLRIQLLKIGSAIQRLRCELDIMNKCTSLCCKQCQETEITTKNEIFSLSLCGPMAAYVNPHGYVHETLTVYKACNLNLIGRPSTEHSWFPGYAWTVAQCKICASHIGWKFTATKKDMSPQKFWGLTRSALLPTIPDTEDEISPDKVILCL

The assay concerns the target T1, human Cereblon WT GST-tagged protein (Homo sapiens, UniProt Q96SW2).
T1 construct: purchased CISBIO 64BDCRBNPEH
Put plainly: CRBN binding, HTRF CEREBLON BINDING kit. Particulars: CRBN binding, HTRF CEREBLON BINDING kit. In short, it runs like this:
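HTRF competition in which test compounds displace a Thalidomide-Re tracer from GST-tagged human Cereblon WT, detected with a GST Eu antibody. Incubation lasted 3 hours at room temperature, with emission read at 620 and 665 nm. Inhibition rate was derived from 665/620 ratios relative to blank and solvent control wells.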
(In general: In TR-FRET formats the signal depends on donor and acceptor labels being close together.)
In general, IC50 refers to the concentration that inhibits the measured activity by half. `O=C1CCN(c2cccc(CN3CCN(C4CCN(c5ccc(Nc6ncc7nc(Nc8ccccc8)n(C8CCCC8)c7n6)cc5)CC4)CC3)c2)C(=O)N1` [GT-05940, 1-(3-((4-(1-(4-((9-cyclopentyl-8-(phenylamino)-9H-purin-2-yl)amino)phenyl)piperidin-4-yl)piperazin-1-yl)methyl)phenyl)dihydropyrimidine-2,4(1H,3H)-dione] displayed an IC50 of 0.5 to 1 µM.
`O=C1CCN(c2ccc(CN3CCN(C4CCN(c5ccc(Nc6ncc7nc(Nc8ccccc8)n(C8CCCC8)c7n6)cc5)CC4)CC3)nc2)C(=O)N1` [GT-05941, 1-(6-((4-(1-(4-((9-cyclopentyl-8-(phenylamino)-9H-purin-2-yl)amino)phenyl)piperidin-4-yl)piperazin-1-yl)methyl)pyridin-3-yl)dihydropyrimidine-2,4(1H,3H)-dione] gave an IC50 of 1 to 1.9 µM.
With `O=C1CCC(Nc2cccc(CN3CCN(C4CCN(c5ccc(Nc6ncc7nc(Nc8ccccc8)n(C8CCCC8)c7n6)cc5)CC4)CC3)c2)C(=O)N1` (centres unmarked) [GT-05943, 3-((3-((4-(1-(4-((9-cyclopentyl-8-(phenylamino)-9H-purin-2-yl)amino)phenyl)piperidin-4-yl)piperazin-1-yl)methyl)phenyl)amino)piperidine-2,6-dione], the 50% inhibitory concentration (IC50) lay in the range of 0.5 to 1 µM.
With `COc1cc(N2CCC(N(C)Cc3ccc(N4CCC(=O)NC4=O)cn3)CC2)c(C)cc1Nc1ncc(Br)c(Nc2ccc3nccnc3c2P(C)(C)=O)n1` [GT-05952, 1-(6-(((1-(4-((5-bromo-4-((5-(dimethylphosphoryl)quinoxalin-6-yl)amino)pyrimidin-2-yl)amino)-5-methoxy-2-methylphenyl)piperidin-4-yl)(methyl)amino)methyl)pyridin-3-yl)dihydropyrimidine-2,4(1H,3H)-dione] the figure was 0.5 to 1 µM; with `COc1cc(N2CCC(N3CCN(Cc4ccc(C5CCC(=O)NC5=O)cc4)CC3)CC2)c(C)cc1Nc1ncc(Br)c(Nc2ccc3nccnc3c2P(C)(C)=O)n1` (centres unmarked) [GT-05999, 3-(4-((4-(1-(4-((5-bromo-4-((5-(dimethylphosphoryl)quinoxalin-6-yl)amino)pyrimidin-2-yl)amino)-5-methoxy-2-methylphenyl)piperidin-4-yl)piperazin-1-yl)methyl)phenyl)piperidine-2,6-dione], 1 to 1.9 µM; with `COc1cc(N2CCC(N3CCN(Cc4ccc(N5CCC(=O)NC5=O)cn4)CC3)CC2)c(C)cc1Nc1ncc(Br)c(Nc2ccc3nccnc3c2P(C)(C)=O)n1` [GT-06003, 1-(6-((4-(1-(4-((5-bromo-4-((5-(dimethylphosphoryl)quinoxalin-6-yl)amino)pyrimidin-2-yl)amino)-5-methoxy-2-methylphenyl)piperidin-4-yl)piperazin-1-yl)methyl)pyridin-3-yl)dihydropyrimidine-2,4(1H,3H)-dione], 1 to 1.9 µM.
`COC1CCN(c2nccc(Nc3cc4c(cn3)c(N3CCN(Cc5ccc(C6CCC(=O)NC6=O)cc5)CC3)nn4C(C)C)n2)CC1` (centres unmarked) [GT-06036, 3-(4-((4-(1-isopropyl-6-((2-(4-methoxypiperidin-1-yl)pyrimidin-4-yl)amino)-1H-pyrazolo[4,3-c]pyridin-3-yl)piperazin-1-yl)methyl)phenyl)piperidine-2,6-dione] registered an IC50 of 1 to 1.9 µM.
Then `CC(C)n1nc(N2CCC(N3CCN(Cc4cccc(N5CCC(=O)NC5=O)c4)CC3)CC2)c2cnc(Nc3ccnc(-c4cnn(S(=O)(=O)C5CC5)c4)n3)cc21` [GT-06080, 1-(3-((4-(1-(6-((2-(1-(cyclopropylsulfonyl)-1H-pyrazol-4-yl)pyrimidin-4-yl)amino)-1-isopropyl-1H-pyrazolo[4,3-c]pyridin-3-yl)piperidin-4-yl)piperazin-1-yl)methyl)phenyl)dihydropyrimidine-2,4(1H,3H)-dione], with 0.5 to 1 µM; and `COC1CCN(c2nccc(Nc3cc4c(cn3)c(N3CCC(N(C)Cc5cccc(N6CCC(=O)NC6=O)c5)CC3)nn4C(C)C)n2)CC1` [GT-06122, 1-(3-(((1-(1-isopropyl-6-((2-(4-methoxypiperidin-1-yl)pyrimidin-4-yl)amino)-1H-pyrazolo[4,3-c]pyridin-3-yl)piperidin-4-yl)(methyl)amino)methyl)phenyl)dihydropyrimidine-2,4(1H,3H)-dione], with 1 to 1.9 µM.
Then `COC1CCN(c2nccc(Nc3cc4c(cn3)c(N3CCC(N(C)Cc5cccc(NC6CCC(=O)NC6=O)c5)CC3)nn4C(C)C)n2)CC1` (centres unmarked) [GT-06123, 3-((3-(((1-(1-isopropyl-6-((2-(4-methoxypiperidin-1-yl)pyrimidin-4-yl)amino)-1H-pyrazolo[4,3-c]pyridin-3-yl)piperidin-4-yl)(methyl)amino)methyl)phenyl)amino)piperidine-2,6-dione], with 0.5 to 1 µM; and `O=C1CCC(c2ccc(CN3CCN(c4ccc(-c5cc(F)c6c(c5)C(=O)N(C(C(=O)Nc5nccs5)c5ncn7c5CCC7)C6)cc4)CC3)cc2)C(=O)N1` (centres unmarked) [GT-06163, 2-(6,7-dihydro-5H-pyrrolo[1,2-c]imidazol-1-yl)-2-(6-(4-(4-(4-(2,6-dioxopiperidin-3-yl)benzyl)piperazin-1-yl)phenyl)-4-fluoro-1-oxoisoindolin-2-yl)-N-(thiazol-2-yl)acetamide], with 0.5 to 1 µM; and `O=C1CCN(c2ccc(CN3CCN(c4ccc(-c5cc(F)c6c(c5)C(=O)N(C(C(=O)Nc5nccs5)c5ncn7c5CCC7)C6)cc4)CC3)cc2)C(=O)N1` (centres unmarked) [GT-06164, 2-(6,7-dihydro-5H-pyrrolo[1,2-c]imidazol-1-yl)-2-(6-(4-(4-(4-(2,4-dioxotetrahydropyrimidin-1(2H)-yl)benzyl)piperazin-1-yl)phenyl)-4-fluoro-1-oxoisoindolin-2-yl)-N-(thiazol-2-yl)acetamide], with 0.5 to 1 µM.
`O=C1CCN(c2cccc(CN3CCN(c4ccc(-c5cc(F)c6c(c5)C(=O)N(C(C(=O)Nc5nccs5)c5ncn7c5CCC7)C6)cc4)CC3)c2)C(=O)N1` (centres unmarked) [GT-06165, 2-(6,7-dihydro-5H-pyrrolo[1,2-c]imidazol-1-yl)-2-(6-(4-(4-(3-(2,4-dioxotetrahydropyrimidin-1(2H)-yl)benzyl)piperazin-1-yl)phenyl)-4-fluoro-1-oxoisoindolin-2-yl)-N-(thiazol-2-yl)acetamide] came in with an IC50 of under 0.5 µM.
With `O=C1CCC(c2ccc(CN3C[C@H]4C[C@@H]3CN4c3ccc(-c4cc(F)c5c(c4)C(=O)N(C(C(=O)Nc4nccs4)c4ncn6c4CCC6)C5)cc3)cc2)C(=O)N1` (stereo partly drawn) [GT-06176, 2-(6,7-dihydro-5H-pyrrolo[1,2-c]imidazol-1-yl)-2-(6-(4-((1R,4R)-5-(4-(2,6-dioxopiperidin-3-yl)benzyl)-2,5-diazabicyclo[2.2.1]heptan-2-yl)phenyl)-4-fluoro-1-oxoisoindolin-2-yl)-N-(thiazol-2-yl)acetamide] the figure was 0.5 to 1 µM; with `O=C1CCN(c2ccc(CN3C[C@H]4C[C@@H]3CN4c3ccc(-c4cc(F)c5c(c4)C(=O)N(C(C(=O)Nc4nccs4)c4ncn6c4CCC6)C5)cc3)cc2)C(=O)N1` (stereo partly drawn) [GT-06177, 2-(6,7-dihydro-5H-pyrrolo[1,2-c]imidazol-1-yl)-2-(6-(4-((1R,4R)-5-(4-(2,4-dioxotetrahydropyrimidin-1(2H)-yl)benzyl)-2,5-diazabicyclo[2.2.1]heptan-2-yl)phenyl)-4-fluoro-1-oxoisoindolin-2-yl)-N-(thiazol-2-yl)acetamide], under 0.5 µM; with `O=C1CCN(c2cccc(CN3C[C@H]4C[C@@H]3CN4c3ccc(-c4cc(F)c5c(c4)C(=O)N(C(C(=O)Nc4nccs4)c4ncn6c4CCC6)C5)cc3)c2)C(=O)N1` (stereo partly drawn) [GT-06178, 2-(6,7-dihydro-5H-pyrrolo[1,2-c]imidazol-1-yl)-2-(6-(4-((1R,4R)-5-(3-(2,4-dioxotetrahydropyrimidin-1(2H)-yl)benzyl)-2,5-diazabicyclo[2.2.1]heptan-2-yl)phenyl)-4-fluoro-1-oxoisoindolin-2-yl)-N-(thiazol-2-yl)acetamide], under 0.5 µM.
With `O=C1CCC(Nc2cccc(CN3C[C@H]4C[C@@H]3CN4c3ccc(-c4cc(F)c5c(c4)C(=O)N(C(C(=O)Nc4nccs4)c4ncn6c4CCC6)C5)cc3)c2)C(=O)N1` (stereo partly drawn) [GT-06179, 2-(6,7-dihydro-5H-pyrrolo[1,2-c]imidazol-1-yl)-2-(6-(4-((1R,4R)-5-(3-((2,6-dioxopiperidin-3-yl)amino)benzyl)-2,5-diazabicyclo[2.2.1]heptan-2-yl)phenyl)-4-fluoro-1-oxoisoindolin-2-yl)-N-(thiazol-2-yl)acetamide], the IC50 lay within 0.5 to 1 µM.
Then `O=C1CCN(c2ccc(CN3C[C@H]4C[C@@H]3CN4c3ccc(-c4cc(F)c5c(c4)C(=O)N(C(C(=O)Nc4nccs4)c4ncn6c4CCC6)C5)cc3)nc2)C(=O)N1` (stereo partly drawn) [GT-06190, 2-(6,7-dihydro-5H-pyrrolo[1,2-c]imidazol-1-yl)-2-(6-(4-((1R,4R)-5-((5-(2,4-dioxotetrahydropyrimidin-1(2H)-yl)pyridin-2-yl)methyl)-2,5-diazabicyclo[2.2.1]heptan-2-yl)phenyl)-4-fluoro-1-oxoisoindolin-2-yl)-N-(thiazol-2-yl)acetamide], with 0.5 to 1 µM.
In turn, `O=C1CCN(c2ccc(CN3CCN(c4ccc(-c5cc(F)c6c(c5)C(=O)N(C(C(=O)Nc5nccs5)c5ncn7c5CCC7)C6)cc4)CC3)nc2)C(=O)N1` (centres unmarked) [GT-06229, 2-(6,7-dihydro-5H-pyrrolo[1,2-c]imidazol-1-yl)-2-(6-(4-(4-((5-(2,4-dioxotetrahydropyrimidin-1(2H)-yl)pyridin-2-yl)methyl)piperazin-1-yl)phenyl)-4-fluoro-1-oxoisoindolin-2-yl)-N-(thiazol-2-yl)acetamide] displayed an IC50 of 0.5 to 1 µM.
In turn, `O=C1CCC(c2ccc(CN3CCN(C4CCN(c5ccc(-c6cc(F)c7c(c6)C(=O)N(C(C(=O)Nc6nccs6)c6ncn8c6CCC8)C7)cc5)CC4)CC3)cc2)C(=O)N1` (centres unmarked) [GT-06243, 2-(6,7-dihydro-5H-pyrrolo[1,2-c]imidazol-1-yl)-2-(6-(4-(4-(4-(4-(2,6-dioxopiperidin-3-yl)benzyl)piperazin-1-yl)piperidin-1-yl)phenyl)-4-fluoro-1-oxoisoindolin-2-yl)-N-(thiazol-2-yl)acetamide] showed an IC50 of under 0.5 µM.
